One compound from patent US20140194392A1 (priority 2013, published 2014) can be followed below.

One assay has as its system A/WSN/33. In kind it is cell-based, influenza A/WSN/33 (H1N1).
The subject of assay [1] is influenza A/WSN/33 (H1N1). Description: microbe, parasite or virus in culture. In kind it is cell-based. Particulars: MDCK, read-out: EC50 for viral plaque formation.
The target of assay [2] is NA of influenza NIBRG14 (H5N1) (Influenza A virus, UniProt Q6DPL2). The format is biochemical.
Chain of NA of influenza NIBRG14 (H5N1) (Q6DPL2 whole entry, looked up): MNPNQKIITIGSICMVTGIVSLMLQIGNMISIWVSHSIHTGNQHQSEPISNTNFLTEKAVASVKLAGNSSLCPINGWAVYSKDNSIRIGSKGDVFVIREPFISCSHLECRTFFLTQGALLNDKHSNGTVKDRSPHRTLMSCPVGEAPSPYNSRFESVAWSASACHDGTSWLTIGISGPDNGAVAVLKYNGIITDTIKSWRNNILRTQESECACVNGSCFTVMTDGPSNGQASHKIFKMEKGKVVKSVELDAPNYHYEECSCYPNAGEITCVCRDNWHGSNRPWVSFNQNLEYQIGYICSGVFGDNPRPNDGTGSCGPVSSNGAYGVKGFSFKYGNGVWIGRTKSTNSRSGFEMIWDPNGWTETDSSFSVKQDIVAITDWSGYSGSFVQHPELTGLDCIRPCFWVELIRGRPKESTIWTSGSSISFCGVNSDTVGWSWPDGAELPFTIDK
For another assay, the system named is A/WSN/33 (H1N1). The format is cell-based, influenza A/WSN/33 (H1N1).
In a further assay the test system is A/Udorn/72 (H3N2). Description: microbe, parasite or virus in culture. The format is cell-based, influenza A/Udorn/72 (H3N2). Conditions: Influenza A virus, H3N2, MDCK, read-out: EC50 for viral plaque formation.
For the next assay, the target named is Bac-NA^WT (Influenza A virus, UniProt Q6DPL2). The format is biochemical.
Chain of Bac-NA^WT (Q6DPL2 63-449 limits assumed): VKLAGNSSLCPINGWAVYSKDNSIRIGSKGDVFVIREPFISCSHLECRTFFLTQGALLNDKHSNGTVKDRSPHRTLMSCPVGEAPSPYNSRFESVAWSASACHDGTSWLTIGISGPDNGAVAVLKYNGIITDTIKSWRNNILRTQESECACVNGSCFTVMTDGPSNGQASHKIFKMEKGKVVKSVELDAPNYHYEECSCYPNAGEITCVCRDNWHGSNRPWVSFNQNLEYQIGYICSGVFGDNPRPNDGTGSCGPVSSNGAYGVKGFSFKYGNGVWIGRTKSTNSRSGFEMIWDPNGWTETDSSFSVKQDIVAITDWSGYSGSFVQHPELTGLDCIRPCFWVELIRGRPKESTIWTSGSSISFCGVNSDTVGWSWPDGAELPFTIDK

Broadly, the EC50 is the concentration needed to bring the measured effect to its halfway point. Usually IC50 stands for the point on the concentration scale where inhibition reaches its midpoint. As to `Nc1c(S(=O)(=O)O)cc(Nc2cccc(S(=O)(=O)CCOS(=O)(=O)O)c2)c2c1C(=O)c1ccccc1C2=O` [RB19, remazol brilliant blue R], the influenza-induced cytopathic effect result in the assay on A/WSN/33 was “inhibited the influenza-induced cytopathic effect”. Besides, the results for the EC50 (in assay [1]; in the assay with A/Udorn/72 (H3N2)) were 2.7 µM and 2.8 µM, respectively. Moreover, the IC50 came out at 5.7 µM in assay [2] and 3.4 µM at Bac-NA^WT. In addition, in the assay on A/WSN/33 (H1N1), the “virus yields (fluorogenic signal of NA activity)” value was “dramatically reduced virus yields”.
